The assay deals with new influenza virus (A/California/04/2009(H1N1)). It is filed as in vivo. Conditions: H1N1-infected BALB/c mice (6 per group), observed 14 days after infection; ginseng concentrates 10 mg/kg/day for 14 days before and one week after inoculation; Tamiflu 2 mg/kg/day.

Compound `CCOC(=O)C1=C[C@@H](OC(CC)CC)[C@H](NC(C)=O)[C@@H](N)C1` [Tamiflu] gave a Fatality of 0%.

For the origin of these results see US12485154B2 (priority 2019, dated 2025).
